Test system: P12-Ichikawa
Assay: cell viability relative to DMSO control; higher = less cytotoxic
Settings: 48 h
Summary of the method: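 NOMO1, SEM and P12-Ichikawa leukemia cells spent at least four passages adapting to each medium before use. They were seeded at 500 cells/well (NOMO1, SEM) or 1000 cells/well (P12-Ichikawa) in 5 μl in 1536-well plates and pin-dosed with library compounds in DMSO at 11 threefold steps from 47 μM down to 0.79 nM. After 48 h at 37°C, CellTiter-Glo One luminescence was read. Viability is reported as a percentage of the DMSO wells on each plate, with cell-free wells as background.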

[1] = HPLM + 10% dialyzed FBS, 0.000781 µM
[2] = HPLM + 10% dialyzed FBS, 0.00234 µM
[3] = HPLM + 10% dialyzed FBS, 0.00702 µM
[4] = HPLM + 10% dialyzed FBS, 0.0211 µM
[5] = HPLM + 10% dialyzed FBS, 0.0632 µM
[6] = HPLM + 10% dialyzed FBS, 0.19 µM
[7] = HPLM + 10% dialyzed FBS, 0.569 µM
[8] = HPLM + 10% dialyzed FBS, 1.71 µM
[9] = HPLM + 10% dialyzed FBS, 5.12 µM
[10] = HPLM + 10% dialyzed FBS, 15.4 µM
[11] = HPLM + 10% dialyzed FBS, 46.1 µM
[12] = RPMI 5 mM glucose + 10% dialyzed FBS, 0.000781 µM
[13] = RPMI 5 mM glucose + 10% dialyzed FBS, 0.00234 µM
[14] = RPMI 5 mM glucose + 10% dialyzed FBS, 0.00702 µM
[15] = RPMI 5 mM glucose + 10% dialyzed FBS, 0.0211 µM
[16] = RPMI 5 mM glucose + 10% dialyzed FBS, 0.0632 µM
[17] = RPMI 5 mM glucose + 10% dialyzed FBS, 0.19 µM
[18] = RPMI 5 mM glucose + 10% dialyzed FBS, 0.569 µM
[19] = RPMI 5 mM glucose + 10% dialyzed FBS, 1.71 µM
[20] = RPMI 5 mM glucose + 10% dialyzed FBS, 5.12 µM
[21] = RPMI 5 mM glucose + 10% dialyzed FBS, 15.4 µM
[22] = RPMI 5 mM glucose + 10% dialyzed FBS, 46.1 µM
[23] = RPMI 5 mM glucose + 10% FBS, 0.000781 µM
[24] = RPMI 5 mM glucose + 10% FBS, 0.00234 µM
[25] = RPMI 5 mM glucose + 10% FBS, 0.00702 µM
[26] = RPMI 5 mM glucose + 10% FBS, 0.0211 µM
[27] = RPMI 5 mM glucose + 10% FBS, 0.0632 µM
[28] = RPMI 5 mM glucose + 10% FBS, 0.19 µM
[29] = RPMI 5 mM glucose + 10% FBS, 0.569 µM
[30] = RPMI 5 mM glucose + 10% FBS, 1.71 µM
[31] = RPMI 5 mM glucose + 10% FBS, 5.12 µM
[32] = RPMI 5 mM glucose + 10% FBS, 15.4 µM
[33] = RPMI 5 mM glucose + 10% FBS, 46.1 µM

| Structure (SMILES) | cell viability [1] [%] | cell viability [2] [%] | cell viability [3] [%] | cell viability [4] [%] | cell viability [5] [%] | cell viability [6] [%] | cell viability [7] [%] | cell viability [8] [%] | cell viability [9] [%] | cell viability [10] [%] | cell viability [11] [%] | cell viability [12] [%] | cell viability [13] [%] | cell viability [14] [%] | cell viability [15] [%] | cell viability [16] [%] | cell viability [17] [%] | cell viability [18] [%] | cell viability [19] [%] | cell viability [20] [%] | cell viability [21] [%] | cell viability [22] [%] | cell viability [23] [%] | cell viability [24] [%] | cell viability [25] [%] | cell viability [26] [%] | cell viability [27] [%] | cell viability [28] [%] | cell viability [29] [%] | cell viability [30] [%] | cell viability [31] [%] | cell viability [32] [%] | cell viability [33] [%] |
| --- | --- | --- | --- | --- | --- | --- | --- | --- | --- | --- | --- | --- | --- | --- | --- | --- | --- | --- | --- | --- | --- | --- | --- | --- | --- | --- | --- | --- | --- | --- | --- | --- | --- |
| CCCCNc1cc(C(=O)O)cc([S+](N)(=O)[O-])c1Oc1ccccc1 | 117 | 116 | 118 | 116 | 124 | 120 | 121 | 118 | 117 | 128 | 127 | 111 | 119 | 115 | 115 | 118 | 117 | 116 | 113 | 124 | 124 | 116 |  |  |  |  |  |  |  |  |  |  |  |
| Oc1ccc(C2CCN(c3ccnc4ccccc34)CC2)cc1O | 102 | 118 | 111 | 113 | 112 | 117 | 110 | 106 | 70.8 | 67.4 | 63.4 | 96.5 | 113 | 106 | 110 | 107 | 112 | 111 | 97.5 | 59.2 | 45.8 | 40.8 | 112 | 110 | 109 | 125 | 122 | 107 | 113 | 110 | 71.5 | 55.1 | 48.5 |
| O=C1C[C@@H](c2ccc(O)cc2)Oc2cc(O)cc(O)c21 | 130 | 119 | 120 | 116 | 119 | 120 | 112 | 110 | 102 | 114 | 121 | 120 | 120 | 120 | 122 | 115 | 130 | 120 | 104 | 110 | 110 | 103 | 125 | 124 | 119 | 124 | 118 | 129 | 114 | 121 | 107 | 110 | 114 |
| Cc1cccc(-c2nn(C(=S)Nc3ccccc3)cc2-c2ccnc3ccccc23)n1 | 115 | 122 | 120 | 117 | 117 | 109 | 113 | 101 | 109 | 86.3 | 78.3 | 121 | 109 | 122 | 114 | 118 | 110 | 119 | 108 | 98.9 | 49 | 73.1 | 115 | 123 | 113 | 124 | 109 | 117 | 111 | 100 | 108 | 91.4 | 74.3 |
| CC[C@H]1/C=C\C=C/C[C@@H](C)[C@H](O)[C@@](C)(O)C(=O)[C@@H](C)[C@H](O)[C@@H](C)C(=O)[C@@H](C)[C@H](O)[C@@H](C)/C=C/C(=O)O[C@@H]2[C@H](C)[C@H](CC1)O[C@]1(CC[C@H](C)[C@H](C[C@@H](C)O)O1)[C@H]2C | 91.4 | 102 | 98.8 | 102 | 89.5 | 107 | 109 | 67.4 | 57.1 | 41.4 | 4.23 | 84.9 | 102 | 92.7 | 89.9 | 101 | 99.8 | 92.2 | 59.1 | 45.9 | 41.8 | 5.21 | 90.5 | 96.7 | 75 | 110 | 94.1 | 109 | 108 | 64.4 | 58.9 | 53.7 | 5.47 |
| CC1(C)C(=O)N(CCN2CCC(C(=O)c3ccc(F)cc3)CC2)c2ccccc21 | 112 | 116 | 117 | 120 | 118 | 123 | 126 | 122 | 120 | 120 | 113 | 109 | 110 | 118 | 123 | 126 | 125 | 121 | 123 | 115 | 97.9 | 93.5 |  |  |  |  |  |  |  |  |  |  |  |
| C[C@H]1C[C@H]2[C@@H]3CCC4=CC(=O)C=C[C@]4(C)[C@@]3(F)[C@@H](O)C[C@]2(C)[C@@]1(O)C(=O)CO | 114 | 119 | 118 | 109 | 98.1 | 78.3 | 73.9 | 71.9 | 71 | 65.5 | 65.8 | 110 | 119 | 116 | 101 | 81.1 | 59.9 | 56 | 48.2 | 46 | 41.5 | 42.5 | 121 | 126 | 116 | 108 | 99.8 | 73.1 | 65.1 | 60.1 | 51.7 | 55.6 | 43.5 |
| CN(C/C=C/C#CC(C)(C)C)Cc1cccc2ccccc12 | 96.2 | 103 | 101 | 104 | 105 | 103 | 106 | 90.6 | 103 | 105 | 107 | 92.3 | 94.4 | 89.7 | 92.3 | 99.5 | 90.8 | 90.9 | 96.5 | 91.8 | 91.3 | 93.8 | 90.6 | 93.1 | 100 | 93.8 | 100 | 105 | 101 | 101 | 98.9 | 102 | 94.5 |
| C[S+](=O)([O-])N(Cc1ccco1)CC(O)Cn1c2ccccc2c2ccccc21 (centres undefined) | 94.2 | 88.9 | 94.2 | 99.9 | 96.3 | 98.8 | 94.8 | 89.8 | 89.3 | 85.8 | 56.6 | 86 | 90.7 | 97 | 97.1 | 94.4 | 87.1 | 81.3 | 88.8 | 85.7 | 73.4 | 41.7 | 92 | 94 | 92 | 89.2 | 97.7 | 99.2 | 91.9 | 83.6 | 76.4 | 79.2 | 42.1 |
| CNC1[C@@H](O)C(O[C@@H]2C(O)C(O[C@H]3O[C@H]([C@@H](C)NC)CC[C@H]3N)[C@@H](N)C[C@H]2N)OC[C@]1(C)O (some centres undefined) | 104 | 98.3 | 102 | 99.6 | 96.5 | 102 | 102 | 98.6 | 89.6 | 90.8 | 85.4 | 92.7 | 89.9 | 90 | 93 | 97.8 | 92.2 | 94.1 | 92.3 | 89.4 | 82.7 | 88.4 | 92.8 | 88.9 | 97.7 | 91.8 | 93 | 102 | 95.2 | 97.1 | 87.9 | 82.4 | 92.2 |
| CC(C)(C)C(=O)OCOP(=O)(COCCn1cnc2c(N)ncnc21)OCOC(=O)C(C)(C)C | 97.4 | 110 | 103 | 103 | 73.1 | 73.5 | 70.2 | 50.1 | 27.4 | 19 | 29.2 | 89.3 | 96.3 | 94.7 | 86.4 | 82.1 | 65 | 61.6 | 46.7 | 28.8 | 28.8 | 27.4 | 94.7 | 104 | 92.3 | 94.6 | 69.5 | 72.9 | 52.6 | 29.9 | 15 | 10.7 | 19.6 |
| Clc1cc(Cl)cc(CNc2ncncc2-c2ccc3c(c2)OCO3)c1 | 93.7 | 93.6 | 92.6 | 97.4 | 100 | 90.3 | 93.8 | 97.5 | 92.6 | 94 | 10.4 | 87.6 | 96.6 | 102 | 96.1 | 95.1 | 91.7 | 92.7 | 102 | 97.9 | 99 | 61.1 | 97.6 | 92.7 | 91.3 | 93.8 | 96.3 | 93.1 | 86.6 | 94.2 | 89.9 | 86 | 47.2 |
| CC(=O)N1CCN(c2ccc(OC[C@H]3CO[C@](Cn4ccnc4)(c4ccc(Cl)cc4Cl)O3)cc2)CC1 | 118 | 120 | 118 | 112 | 108 | 121 | 114 | 105 | 104 | 94 | 63.2 | 109 | 107 | 110 | 107 | 113 | 106 | 101 | 101 | 94 | 96.7 | 68.2 |  |  |  |  |  |  |  |  |  |  |  |
| CO[C@H]1C[C@@H]2CC[C@@H](C)[C@@](O)(O2)C(=O)C(=O)N2CCCC[C@H]2C(=O)O[C@H]([C@H](C)C[C@@H]2CC[C@@H](OC(=O)C(C)(CO)CO)[C@H](OC)C2)CC(=O)[C@H](C)/C=C(\C)[C@@H](O)[C@@H](OC)C(=O)[C@H](C)C[C@H](C)/C=C/C=C/C=C/1C | 110 | 117 | 113 | 106 | 104 | 107 | 100 | 96 | 87.2 | 83.4 | 77.9 | 94.3 | 110 | 110 | 92 | 92.8 | 96.7 | 85 | 89.8 | 78.2 | 66.5 | 52.5 | 92.8 | 111 | 97.6 | 97.8 | 94.1 | 90 | 87.6 | 84.4 | 65.8 | 63.3 | 50.1 |
